According to US20230364069A1, “METHOD FOR TREATING NON-ALCOHOLIC STEATOHEPATITIS THROUGH CO-ADMINISTRATION OF CURCUMIN DERIVATIVE AND TGF-B RECEPTOR INHIBITOR” (UNIVERSITY INDUSTRY FOUNDATION, YONSEI UNIVERSITY WONJU …, priority 2021, published 2023):

Legend:
[1] = test system: LX-2 cells (human hepatic stellate cell lines); experiment: Fibrosis markers by Western blotting after TGF-β induction, TGF-β receptor inhibitor; format: cell-based; conditions: 2 ng/ml TGF-β, 10 μM EW-7197, 24 hours, FIG. 3
Description: Cell experiments were performed by using AML12, […], and LX-2 cells, a human hepatic stellate cell.
LX-2 cells were cultured in a culture medium made by adding 1% penicillin streptomycin (anti-anti) and 10% fetal bovine serum (FBS) to a DMEM medium containing high glucose (4500 mg/L D-glucose, L-glutamine, 110 mg/L sodium pyruvate, sodium bicarbonate).
Fibrosis was induced in hepatocytes with TGF-β, a TGF-β receptor inhibitor was administered, and fibrosis was checked.
Specifically, 2 ng/ml of TGF-β was administered to the cells of Example 1-1, and administered or not administered with 10 μM EW-7197 (EW), and cultured for 24 hours. The control group (Con) was not treated with either TGF-β or the sample. […] A protein concentration was measured by BCA assay (Pierce Biotechnology Inc). […] Then, the membranes were washed, briefly incubated with Pico Enhanced Peroxidase Detection (EPD) Western reagent (ELPISBIOTECH. INC.) according to the manufacturer's procedure, and quantified by using an image analyzer (ImageQuant™ LAS 500, GE Healthcare Bio-Sciences AB, Uppsala, Sweden). β-actin was used as an internal control. Densitometry of protein intensity was quantified by using ImageJ (National Institutes of Health). […]

[2] = test system: mouse hepatocyte cell lines (AML12); experiment: Fat accumulation induced by oleic acid (BODIPY staining, Western blotting); format: cell-based; conditions: 500 μM oleic acid, 24 hours; for fat increased by oleic acid (BODIPY staining, adipophilin and SREBP1C Western blotting): 1 μM Cur5-8, 10 μM EW-7197, FIGS. 6 and 7
Description: Fat accumulation was induced in hepatocytes with oleic acid, curcumin derivatives were administered, and fat synthesis and degradation were confirmed.
Specifically, oleic acid was dissolved in 0.2% bovine serum albumin (BSA) at a concentration of 500 μM, and the cells of Example 1-1 were cultured for 24 hours and treated with the resultant, and also treated with 1 μM curcumin (Cur), 1 μM curcumin 5-8 (Cur5-8), 1 μM curcumin 4-8 (Cur4-8), and 1 μM curcumin 5-14 (Cur5-14) for the same period of time. Thereafter, BODIPY-fatty acid solution (Sigma, 1 mg/mL of stock DMSO solution was diluted with PBS 1× to obtain a final concentration of 0.2 μg/mL) was administered to cells cultured in an incubator of 5% CO2 at 37° C. and cultured for one hour. After washing with PBS 1×, stained cells were observed.
In addition, the cells of Example 1-1 were treated with oleic acid in the same manner as described above and treated with 1 μM curcumin (Cur), 1 μM Curcumin 5-8 (Cur5-8), and 10 μM EW-7197 (EW), and then BODIPY-fatty acid staining was performed in the same manner as above. In addition, the cells were collected after treatment, and the protein expressions of adipophilin as a fat accumulation inducing factor and SREBP1C as a fat metabolism regulator in the collected cells were checked by Western blotting. To this end, Western blotting was performed by using the collected cells in the same method as described in <Example 1-3>. At this time, an anti-β-actin antibody, an anti-adipophilin antibody, and an anti-SREBP1C antibody were used as primary antibodies.
The mouse hepatocyte cell lines were treated with oleic acid by the method described in Example 1-4 and were simultaneously treated with each of curcumin (Cur) and curcumin derivatives (Cur5-8, Cur4-8, and Cur5-14) for 24 hours, and fat was stained by BODIPY staining method. […]

[3] = test system: mouse hepatocyte cell lines (AML12); experiment: TGF-β-induced fibrosis, co-administration of dehydrozingerone derivative and EW-7197 (epithelial-mesenchymal conversion, BODIPY, α-SMA staining); format: cell-based; conditions: 2 ng/ml TGF-β, 24 hours, 10 μM EW-7197, 1 μM Cur or Cur5-8, 10 μM DHZ, DHZ103 or DHZ176
Description: In addition, the curcumin derivative Cur5-8 of Example 1-4 and the TGF-β receptor inhibitor were co-administered, and then fibrosis and fat synthesis and degradation were checked again. […] The control group (Con) was not treated with either TGF-β or the sample. […] After washing with PBS 1×, stained cells were observed. In addition, in order to check the degree of fibrosis of hepatocytes, the cells cultured for 24 hours were fixed with 4% paraformaldehyde and stained by using α-SMA (Santa Cruz Biotechnology, Inc., Dallas, Texas, USA), an Alexafluor 488 (Cell Signaling Technology, Danvers, Massachusetts, USA) antibody, and DAPI (Abcam plc., Cambridge, MA, USA). The cells were mounted with a mounting solution (Fisher Scientific, Hampton, Rockingham, USA), the manufactured sample was photographed using a confocal microscope to obtain photographs of stained cells, and the degree of color development in the photographs of the stained cells was analyzed with the ImageJ program.

liver fibrosis model = conditions: carbon tetrachloride (CCL4) administration and bile duct ligation; previous studies; cited from earlier work
lung fibrosis model = conditions: bleomycin (BLM); previous studies; cited from earlier work

SMILES: Cc1cccc(-c2[nH]c(CNc3ccccc3F)nc2-c2ccc3ncnn3c2)n1 [EW-7197, N-(2-fluorophenyl)-5-(6-methyl-2-pyridinyl)-4-[1,2,4]triazolo[1,5-a]pyridin-6-yl-1H-imidazole-2-methanamine]
- protein expressions of α-SMA, Coll, p-SMAD2, and p-SMAD3 increased by TGF-β [1]: inhibited
- fat increased by oleic acid (BODIPY staining, adipophilin and SREBP1C Western blotting) [2]: promotes the fat increase caused by oleic acid
- epithelial-mesenchymal conversion caused by TGF-β ([3]; FIG. 16): inhibited
- fat accumulation / adipogenesis in cells (BODIPY staining) ([3]; FIGS. 16, 17): fat accumulation in cells was exhibited
- liver fibrosis (α-SMA staining) ([3]; FIGS. 16, 18): inhibited
- liver damage (liver fibrosis model): suppressing liver damage
- tissue fibrosis (lung) (lung fibrosis model): suppressing tissue fibrosis

SMILES: COc1cc(/C=C/C(=O)c2cccc(NC(=O)C(C)C)c2)ccc1O [Cur5-8, N-{3-[(2E)-3-(4-hydroxy-3-methoxyphenyl)prop-2-enoyl]phenyl}-2-methylpropanamide]
- fat increased by oleic acid (BODIPY staining) ([2]; 1 μM compound, FIGS. 4 and 5): most effectively reduced fat
- fat increased by oleic acid (BODIPY staining, adipophilin and SREBP1C Western blotting) [2]: reduced the fat increased by oleic acid
